According to ChEMBL document CHEMBL4190175 (Medchemcomm, 2016):
Activity calls are given as the source filed them. The rule behind the calls is not given here.

Experiments:
[1] = molecular target: T1, Transient receptor potential cation channel subfamily A member 1 (Homo sapiens, UniProt O75762); experiment: Antagonist activity at full length human TRPA1 expressed in 293-T-REx cells by FLIPR assay
[2] = Stability in human liver microsomes assessed as metabolic turnover number at 10 uM after 15 mins by LC-MS/UV analysis; format: ADME, microsome; details: read-out: Stability
[3] = system: Rattus norvegicus; experiment: Suppression of cinnamaldehyde-induced flare response in Sprague-Dawley rat skin at 50 to 100 mg/kg administered topically measured after 30 to 90 mins by recording blood flow for 30 mins by laser Doppler sonography method; format: functional, organism-based
[4] = Passive permeability of the compound in RRCK cells; format: ADME, cell-based, Canis lupus familiaris, MDCKII-LE; details: dog, MDCK; read-out: permeability
[5] = system: Rattus norvegicus; experiment: Suppression of cinnamaldehyde-induced flare response in Sprague-Dawley rat skin at 50 to 100 mg/kg administered topically preincubated for 30 to 90 mins measured by recording blood flow for 30 mins by laser Doppler sonography method; format: functional, organism-based
[6] = molecular target: T1, Transient receptor potential cation channel subfamily A member 1; experiment: Antagonist activity at full length human TRPA1 at holding potential of 15 mV measured after 1 min by PatchXpress electrophysiology assay
[7] = Ratio of permeability from basolateral to apical side over apical to basolateral side in RRCK cells expressing MDR1; format: ADME, cell-based, Canis lupus familiaris; details: dog, mdckii-le
[8] = Lipophilicity, log D of the compound; format: physicochemical; details: octanol/water
[9] = Drug uptake in Sprague-Dawley rat skin epidermal layer at 0.68 mg applied topically measured after 24 hrs; format: ADME, tissue-based, Skin epidermis; details: topical or ocular, read-out: Drug uptake
[10] = molecular target: Transient receptor potential cation channel subfamily A member 1 (Rattus norvegicus, UniProt Q6RI86); experiment: Antagonist activity at rat TRPA1 by electrophysiology assay
[11] = Drug uptake in Sprague-Dawley rat skin dermal layer at 0.68 mg applied topically measured after 24 hrs; format: ADME, tissue-based, Dermis; details: topical or ocular, read-out: Drug uptake

T1 sequence (O75762 whole entry): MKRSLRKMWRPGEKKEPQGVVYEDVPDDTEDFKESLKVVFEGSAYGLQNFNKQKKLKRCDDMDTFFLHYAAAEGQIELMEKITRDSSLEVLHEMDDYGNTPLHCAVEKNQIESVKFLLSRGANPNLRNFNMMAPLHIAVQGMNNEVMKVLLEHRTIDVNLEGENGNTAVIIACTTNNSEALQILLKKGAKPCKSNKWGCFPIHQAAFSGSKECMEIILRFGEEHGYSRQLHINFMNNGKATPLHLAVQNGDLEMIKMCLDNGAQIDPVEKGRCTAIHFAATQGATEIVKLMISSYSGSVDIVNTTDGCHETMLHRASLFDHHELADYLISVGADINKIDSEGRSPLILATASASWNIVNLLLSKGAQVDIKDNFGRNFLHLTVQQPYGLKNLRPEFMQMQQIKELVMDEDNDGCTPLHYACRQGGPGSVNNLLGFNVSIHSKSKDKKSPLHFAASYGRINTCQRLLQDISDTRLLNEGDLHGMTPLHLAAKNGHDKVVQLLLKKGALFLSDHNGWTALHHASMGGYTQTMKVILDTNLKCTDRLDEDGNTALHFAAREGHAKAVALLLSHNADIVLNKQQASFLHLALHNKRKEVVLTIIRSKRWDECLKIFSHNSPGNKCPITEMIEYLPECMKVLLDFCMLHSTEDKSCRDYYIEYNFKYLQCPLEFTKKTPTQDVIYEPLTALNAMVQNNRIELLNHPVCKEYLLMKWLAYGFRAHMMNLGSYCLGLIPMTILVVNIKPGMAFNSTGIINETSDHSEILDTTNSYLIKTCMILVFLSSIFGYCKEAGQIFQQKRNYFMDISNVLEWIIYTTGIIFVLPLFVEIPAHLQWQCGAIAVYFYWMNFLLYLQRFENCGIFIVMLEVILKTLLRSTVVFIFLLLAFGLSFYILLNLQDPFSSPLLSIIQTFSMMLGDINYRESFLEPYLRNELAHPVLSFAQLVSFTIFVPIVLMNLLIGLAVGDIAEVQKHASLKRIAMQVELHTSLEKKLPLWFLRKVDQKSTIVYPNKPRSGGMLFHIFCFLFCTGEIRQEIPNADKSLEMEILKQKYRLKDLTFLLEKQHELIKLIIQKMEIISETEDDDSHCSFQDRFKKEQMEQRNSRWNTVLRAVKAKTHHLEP
Transient receptor potential cation channel subfamily A member 1 (Rattus norvegicus, UniProt Q6RI86), sequence (Q6RI86 whole entry): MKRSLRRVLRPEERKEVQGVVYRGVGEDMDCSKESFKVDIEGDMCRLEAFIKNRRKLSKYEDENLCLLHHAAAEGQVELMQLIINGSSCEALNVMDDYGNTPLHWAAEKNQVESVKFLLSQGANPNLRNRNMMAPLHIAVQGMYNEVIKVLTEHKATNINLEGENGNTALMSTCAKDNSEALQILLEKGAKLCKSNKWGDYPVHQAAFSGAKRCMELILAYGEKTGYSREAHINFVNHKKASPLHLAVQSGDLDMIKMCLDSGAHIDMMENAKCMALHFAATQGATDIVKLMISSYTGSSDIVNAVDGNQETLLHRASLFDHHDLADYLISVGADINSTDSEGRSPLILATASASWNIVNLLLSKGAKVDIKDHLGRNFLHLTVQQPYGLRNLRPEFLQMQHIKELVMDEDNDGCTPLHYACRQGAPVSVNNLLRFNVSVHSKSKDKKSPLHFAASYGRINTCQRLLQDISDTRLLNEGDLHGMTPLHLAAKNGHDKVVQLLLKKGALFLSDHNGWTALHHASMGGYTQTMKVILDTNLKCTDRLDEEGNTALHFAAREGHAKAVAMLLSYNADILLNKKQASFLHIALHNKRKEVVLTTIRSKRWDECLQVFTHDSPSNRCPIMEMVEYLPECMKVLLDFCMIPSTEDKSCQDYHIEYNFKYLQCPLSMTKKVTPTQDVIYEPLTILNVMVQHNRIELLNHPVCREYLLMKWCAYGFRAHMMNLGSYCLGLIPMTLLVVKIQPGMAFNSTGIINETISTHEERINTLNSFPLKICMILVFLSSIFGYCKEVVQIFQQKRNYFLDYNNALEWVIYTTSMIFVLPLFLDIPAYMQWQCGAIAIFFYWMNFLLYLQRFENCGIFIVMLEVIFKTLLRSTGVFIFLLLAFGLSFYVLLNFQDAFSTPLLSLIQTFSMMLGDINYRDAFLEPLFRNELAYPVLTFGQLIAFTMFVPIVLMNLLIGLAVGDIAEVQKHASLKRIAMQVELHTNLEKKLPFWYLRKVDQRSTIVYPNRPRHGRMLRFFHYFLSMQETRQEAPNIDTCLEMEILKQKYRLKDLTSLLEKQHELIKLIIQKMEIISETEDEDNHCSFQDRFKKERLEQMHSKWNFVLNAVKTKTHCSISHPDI

| Compound | IC50 [1] | microsomal CLint at 10 µM [2] | Papp [4] | IC50 [6] | further results |
| --- | --- | --- | --- | --- | --- |
| O=C(NCC(Cc1ccccc1)N1CCC(O)(C(F)(F)F)CC1)C1(c2ccc(Cl)cc2)CCCC1 (racemic) | 374 nM | > 320 µL/min/mg | 1 ×10⁻⁶ cm/s | 17 nM | Activity [3]: Active; Activity [5]: Active |
| CCCC(C)(C)C(=O)NC[C@@H](Cc1ccccc1)N1CCC(O)(C(F)(F)F)CC1 | 71 nM |  |  |  |  |
| CC(C)C(CNC(=O)C1(c2ccc(Cl)cc2)CCCC1)N1CCC(O)(C(F)(F)F)CC1 (racemic) |  | > 320 µL/min/mg | < 1 ×10⁻⁶ cm/s | > 1000 nM |  |
| O=C(NCC(Cc1ccccc1)N1CCC(O)(C(F)(F)F)C1)C1(c2ccc(F)cc2)CCC1 (racemic) |  |  |  | 309 nM |  |
| O=C(NCC(Cc1ccc(F)cc1)N1CCC2(CC1)COC2)C1(c2ccc(F)cc2)CCCC1 (racemic) | > 10000 nM | > 320 µL/min/mg |  |  |  |
| O=C(NC[C@H](Cc1ccccc1)N1CCC(O)(C(F)(F)F)CC1)C1(c2ccc(Cl)cc2)CC1 |  | > 320 µL/min/mg |  | 474 nM |  |
| O=C(NCC(Cc1ccccc1)N1CCN(c2ccccn2)CC1)C1(c2ccc(Cl)cc2)CCCC1 (racemic) |  | 312 µL/min/mg | < 1 ×10⁻⁶ cm/s | > 1000 nM |  |
| O=C(NCC(Cc1ccc(F)cc1)N1C2CCC1CC(O)(C(F)(F)F)C2)C1(c2ccc(F)cc2)CCCC1 (racemic) |  | > 320 µL/min/mg |  | 825 nM |  |
| O=C(NCC(Cc1ccc(F)cc1)N1CCC2(C1)CC2(F)F)C1(c2ccc(F)cc2)CCCC1 (racemic) | > 10000 nM | > 320 µL/min/mg | 0.3 ×10⁻⁶ cm/s |  |  |
| O=C(NCC(c1ccccc1)N1CCC(O)(C(F)(F)F)CC1)C1(c2ccc(Cl)cc2)CC1 (racemic) |  | > 320 µL/min/mg | 4 ×10⁻⁶ cm/s | > 3000 nM |  |
| O=C(NCC(Cc1ccc(F)cc1)N1CCC(C(F)(F)F)C1)C1(c2ccc(F)cc2)CCCC1 (racemic) |  |  |  | 1450 nM |  |
| O=C(NC[C@@H](Cc1ccccc1)N1CCC(O)(C(F)(F)F)CC1)C1(c2ccc(Cl)cc2)CC1 |  | > 320 µL/min/mg |  | 53 nM |  |
| O=C(NCC(Cc1ccccc1)N1CCC(C(F)(F)F)CC1)C1(c2ccc(F)cc2)CCCC1 (racemic) |  | 238 µL/min/mg | 6 ×10⁻⁶ cm/s | 673 nM |  |
| O=C(NCC(Cc1ccc(F)cc1)N1CCC(O)C1)C1(c2ccc(F)cc2)CCCC1 (racemic) | > 10000 nM | 170 µL/min/mg |  |  |  |
| O=C(NCC(CC1CCOCC1)N1CCC(O)(C(F)(F)F)CC1)C1(c2ccc(Cl)cc2)CCCC1 (racemic) |  | > 320 µL/min/mg | 3 ×10⁻⁶ cm/s | 1900 nM |  |
| O=C(NCC(Cc1ccc(F)cc1)N1CC2CCC1C2)C1(c2ccc(F)cc2)CC1 (racemic) | > 10000 nM | > 320 µL/min/mg |  |  |  |

| Compound | IC50 [1] | microsomal CLint at 10 µM [2] | Papp [4] | IC50 [6] | further results |
| --- | --- | --- | --- | --- | --- |
| CC1(C(=O)NCC(Cc2ccccc2)N2CCC(O)(C(F)(F)F)CC2)CCCCC1 (racemic) |  | > 320 µL/min/mg |  | 851 nM |  |
| O=C(NCC(Cc1ccccc1)N1CCC(O)(C(F)(F)F)CC1)C1(c2ccc(Cl)cc2)CC1 (racemic) |  | > 320 µL/min/mg | 2 ×10⁻⁶ cm/s | 73 nM |  |
| Cc1nc(C(=O)NCC(Cc2ccccc2)N2CCC(O)(C(F)(F)F)CC2)c(C(F)(F)F)o1 (racemic) | > 10000 nM | 146 µL/min/mg |  |  |  |
| CN1CCC(CC(CNC(=O)C2(c3ccc(Cl)cc3)CCCC2)N2CCC(O)(C(F)(F)F)CC2)CC1 (racemic) |  | 42 µL/min/mg | 1 ×10⁻⁶ cm/s | 26700 nM |  |
| CC(C)(C)[C@H]1CC[C@H](C(=O)NCC(Cc2ccccc2)N2CCC(O)(C(F)(F)F)CC2)CC1 (mixture of isomers) |  | > 320 µL/min/mg |  | 101 nM |  |
| CN1CCN(C(CNC(=O)C2(c3ccc(Cl)cc3)CCCC2)Cc2ccccc2)CC1 (racemic) |  | > 320 µL/min/mg | 3 ×10⁻⁶ cm/s | > 3000 nM |  |
| CCCC(C)(C)C(=O)NC[C@H](Cc1ccccc1)N1CCC(O)(C(F)(F)F)CC1 | 1700 nM |  |  |  |  |
| O=C1CCC2(CCN(C(CNC(=O)C3(c4ccc(F)cc4)CC3)Cc3ccc(F)cc3)CC2)N1 (racemic) | > 10000 nM | 168 µL/min/mg |  |  |  |
| CC(C)(C)c1ccc(CC(=O)NCC(Cc2ccccc2)N2CCC(O)(C(F)(F)F)CC2)cc1 (racemic) | > 10000 nM | > 320 µL/min/mg |  |  |  |
| O=C(NCC(Cc1ccccc1)N1CCC(O)(C(F)(F)F)CC1)C1(C(F)(F)F)CC1 (racemic) |  | 149 µL/min/mg |  | 1000 nM |  |
| O=C(NC[C@H](Cc1ccccc1)N1CCC(O)(C(F)(F)F)CC1)C1(c2ccc(Cl)cc2)CCCC1 |  | > 320 µL/min/mg | 1 ×10⁻⁶ cm/s | 1900 nM | Ratio [7]: 1; logD [8]: 4.7 |
| O=C(NCC(Cc1ccccc1)N1CCC(O)(C(F)(F)F)CC1)c1cc(C(F)(F)F)ccn1 (racemic) |  | 285 µL/min/mg | 8 ×10⁻⁶ cm/s | 83 nM |  |
| O[C@]12CCCC[C@@H]1CCC[C@H]2Nc1ccc(F)cc1 |  |  |  | 10 nM | concentration at 24 h [9]: 86000 ng/g; IC50 [10]: 8 nM; concentration at 24 h [11]: 232000 ng/g |
| CC(C)c1csc(C(=O)NCC(Cc2ccccc2)N2CCC(O)(C(F)(F)F)CC2)n1 (racemic) |  | > 320 µL/min/mg |  | 159 nM |  |
| CC(C)(C(=O)NCC(Cc1ccccc1)N1CCC(O)(C(F)(F)F)CC1)C(F)(F)F (racemic) |  | 284 µL/min/mg | 31 ×10⁻⁶ cm/s | 91 nM |  |
| CN(CC(Cc1ccccc1)N1CCC(O)(C(F)(F)F)CC1)C(=O)C1(c2ccc(Cl)cc2)CCCC1 (racemic) |  | > 320 µL/min/mg |  | > 1000 nM |  |
